Results: PMC10955127 (Frontiers in Pharmacology, 2024)
Entries after “also recorded” stand apart in the source; their conditions may differ. Where two headings read alike, the source gives them in different places.

Legend:
[1] = In vitro skin penetration and metabolism, fresh viable pig skin on static Franz cells; conditions: 24 h; epidermis + dermis + receptor fluid
Text: Fresh viable pig skin (without hot steam treatment, by-product from meat industry) was obtained from a local, commercial butcher (Hammoor, Germany). The back skin was from female pigs (bred from “Dänische Landrasse” (female) and Pietrain (male) pigs, ~130 days old, 100 kg body weight). Pig skin samples were gently dry-shaved and washed with water before use. For the experiment, 2 replicate discs from each of 3 donors were used.
Skin of full-thickness was mounted on static Franz cells with a 4.9 cm² application area. The receptor compartment of the diffusion cell was filled with approx. 5 ml RF (1% BSA, 0.9% NaCl, 0.05% gentamycin sulfate in water), above a magnetic stirrer set to low rotation. […] The experiment was conducted using non-occluded conditions.
The dermal absorption was calculated as the total amount present within epidermis (without the amount in the total SC strips), dermis and RF.

[2] = in vitro; type: in vitro ADME
Procedure: […]. Samples were precipitated with an equal volume of acetonitrile containing internal standards (1 μM diazepam, 1 μM griseofulvin, 10 μM diclofenac) and then centrifuged (4800 x g, room temperature, 5 min) before analysis by UHPLC-MS/HRMS.
The amount of compound in the samples was expressed as percentage of remaining compound compared to time point zero (=100%). These percentages were plotted against the corresponding time points. In vitro intrinsic clearance (CLint) and half-life (t1/2) estimates were determined using the rate of precursor disappearance and following formula, based on the well-stirred liver model (Obach 1999):
t1/2 = half-life [min]; k = slope from the linear regression of log [test compound] versus time plot [1/min]
Where CLint = in vitro intrinsic clearance [μl/min/10^6 cells]; t1/2 = half-life [min]; k = slope of the linear regression of log [test compound] versus time plot [1/min]; V = ratio of incubation volume and cell number and fu = unbound fraction in the blood. […]

[3] = Deterministic PBPK model of plasma concentrations; parameters: species or system human; conditions: deterministic PBPK and Fup
[4] = tested on: panel of 83 pharmacological targets
Text: The set of targets was extended to broaden the biological coverage.
Results showing an inhibition or stimulation higher than 50% are considered to represent significant effects (i.e. a “hit”).

[5] = molecular target: acetylcholinesterase (h) (Homo sapiens, UniProt P22303); test: Pharmacology profiling: acetylcholinesterase; type: biochemical
[6] = molecular target: COX1(h) (Homo sapiens, UniProt P23219); test: Pharmacology profiling: COX1; type: biochemical
[7] = molecular target: T1, COX2(h) (Homo sapiens, UniProt P35354); test: Pharmacology profiling: COX2; type: biochemical
T1 sequence (P35354 18-604): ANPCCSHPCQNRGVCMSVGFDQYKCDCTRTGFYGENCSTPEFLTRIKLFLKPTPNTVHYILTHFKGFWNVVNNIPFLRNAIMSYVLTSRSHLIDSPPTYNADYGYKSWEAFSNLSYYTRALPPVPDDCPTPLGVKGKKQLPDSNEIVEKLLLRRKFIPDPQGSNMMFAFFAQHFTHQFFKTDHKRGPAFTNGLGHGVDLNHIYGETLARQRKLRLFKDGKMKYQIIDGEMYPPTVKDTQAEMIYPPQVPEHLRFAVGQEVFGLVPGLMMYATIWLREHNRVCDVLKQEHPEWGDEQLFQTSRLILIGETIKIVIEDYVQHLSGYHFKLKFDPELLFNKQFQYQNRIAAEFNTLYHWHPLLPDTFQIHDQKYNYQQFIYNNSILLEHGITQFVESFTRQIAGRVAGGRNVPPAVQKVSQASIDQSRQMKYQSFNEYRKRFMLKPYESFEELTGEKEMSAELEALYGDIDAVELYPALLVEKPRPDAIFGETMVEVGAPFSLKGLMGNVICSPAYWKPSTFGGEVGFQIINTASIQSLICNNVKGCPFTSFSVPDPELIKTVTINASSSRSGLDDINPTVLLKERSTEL

[8] = Procedure: Figure 8 provides an overview of the tiered workflow and the related in silico and in vitro NAMs used to calculate the MoIE. […] Since this assessment is conducted using plasma concentrations rather than external doses, the comparison is an MoIE.
In this assessment, the total plasma concentrations were used, rather than unbound concentrations, because they are compared with nominal doses used in the in vitro assays (biokinetics in the toxicogenomics incubations were not measured).

[9] = molecular target: Human MDR1 (Homo sapiens, UniProt P08183); conditions: not told
[10] = molecular target: Human MRP4 (Homo sapiens, UniProt O15439); conditions: not told
[11] = molecular target: Human OAT3 (Homo sapiens, UniProt Q8TCC7)
[12] = tested on: HepG2 cells; conditions: human, 24 h
[13] = tested on: hiPSCs differentiated into cardiomyocytes, hepatocytes, or neural rosettes; conditions: human
[14] = tested on: hPTCs; conditions: human, 72 h
[15] = tested on: estrogen receptor; parameters: method as in ToxCast database; conditions: ref ToxCast database; cited from earlier work
[16] = tested on: estrogen receptor; parameters: method as in ToxCast database; conditions: ref ToxCast database; cited from earlier work; remark: listed apart in the source
[17] = tested on: estrogen receptor; parameters: method as in ToxCast database; conditions: ref ToxCast database; cited from earlier work; remark: listed apart in the source
[18] = tested on: androgen receptor; parameters: method as in ToxCast database; conditions: ref ToxCast database; cited from earlier work
[19] = tested on: androgen receptor; parameters: method as in ToxCast database; conditions: ref ToxCast database; cited from earlier work; remark: listed apart in the source
[20] = tested on: thyroid pathway; parameters: method as in ToxCast database; conditions: ref ToxCast database; cited from earlier work
[21] = tested on: HepG2 cells; test: Whole-genome transcriptomics dose response (toxicogenomics); conditions: analysis method 1; HepG2, 24 h

Chain of COX1(h) (P23219 24-599): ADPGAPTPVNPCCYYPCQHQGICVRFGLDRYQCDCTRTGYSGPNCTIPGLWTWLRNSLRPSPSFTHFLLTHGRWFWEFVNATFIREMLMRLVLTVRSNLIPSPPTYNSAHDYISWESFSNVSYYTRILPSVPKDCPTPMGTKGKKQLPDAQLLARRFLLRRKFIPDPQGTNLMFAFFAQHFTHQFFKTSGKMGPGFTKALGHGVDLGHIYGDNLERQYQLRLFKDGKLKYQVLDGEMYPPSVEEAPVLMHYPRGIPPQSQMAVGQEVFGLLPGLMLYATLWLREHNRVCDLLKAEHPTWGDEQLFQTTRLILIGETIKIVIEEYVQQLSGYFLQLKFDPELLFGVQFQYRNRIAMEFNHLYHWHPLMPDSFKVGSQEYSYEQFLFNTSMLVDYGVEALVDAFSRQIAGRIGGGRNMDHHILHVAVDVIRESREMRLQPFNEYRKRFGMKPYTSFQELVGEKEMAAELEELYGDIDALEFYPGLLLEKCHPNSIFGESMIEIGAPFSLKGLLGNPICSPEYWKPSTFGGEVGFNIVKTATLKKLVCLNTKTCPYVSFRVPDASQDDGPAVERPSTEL
Chain of acetylcholinesterase (h) (P22303 32-614): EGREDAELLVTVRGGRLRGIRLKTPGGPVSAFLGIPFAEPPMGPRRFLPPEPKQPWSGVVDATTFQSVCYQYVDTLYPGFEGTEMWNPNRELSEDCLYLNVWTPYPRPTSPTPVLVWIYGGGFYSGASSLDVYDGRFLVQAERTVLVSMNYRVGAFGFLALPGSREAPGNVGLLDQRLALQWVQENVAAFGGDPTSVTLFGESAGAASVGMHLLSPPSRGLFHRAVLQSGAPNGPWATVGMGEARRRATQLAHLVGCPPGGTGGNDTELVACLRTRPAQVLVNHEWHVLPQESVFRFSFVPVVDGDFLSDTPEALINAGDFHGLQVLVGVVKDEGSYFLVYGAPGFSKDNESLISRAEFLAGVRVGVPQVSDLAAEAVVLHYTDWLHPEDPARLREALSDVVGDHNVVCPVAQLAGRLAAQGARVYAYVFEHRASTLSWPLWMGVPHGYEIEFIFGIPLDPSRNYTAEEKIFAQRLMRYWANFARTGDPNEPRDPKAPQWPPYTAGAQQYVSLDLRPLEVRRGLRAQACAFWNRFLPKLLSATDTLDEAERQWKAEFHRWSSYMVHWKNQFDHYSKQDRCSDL
Chain of Human OAT3 (Q8TCC7 whole entry): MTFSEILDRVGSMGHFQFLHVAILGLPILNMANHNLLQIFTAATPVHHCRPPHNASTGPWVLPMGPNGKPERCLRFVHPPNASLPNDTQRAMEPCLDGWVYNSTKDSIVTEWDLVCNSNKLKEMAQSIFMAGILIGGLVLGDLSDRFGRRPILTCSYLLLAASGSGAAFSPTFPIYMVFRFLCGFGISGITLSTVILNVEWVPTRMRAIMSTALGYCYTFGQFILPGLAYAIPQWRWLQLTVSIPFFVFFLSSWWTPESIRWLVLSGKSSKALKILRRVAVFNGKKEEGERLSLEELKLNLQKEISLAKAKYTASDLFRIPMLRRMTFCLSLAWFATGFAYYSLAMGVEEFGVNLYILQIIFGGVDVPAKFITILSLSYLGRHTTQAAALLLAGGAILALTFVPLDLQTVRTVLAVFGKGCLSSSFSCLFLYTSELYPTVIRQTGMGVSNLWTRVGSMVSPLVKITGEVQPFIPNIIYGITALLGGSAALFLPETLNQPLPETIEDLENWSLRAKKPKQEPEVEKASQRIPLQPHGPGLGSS
Chain of Human MRP4 (O15439 whole entry): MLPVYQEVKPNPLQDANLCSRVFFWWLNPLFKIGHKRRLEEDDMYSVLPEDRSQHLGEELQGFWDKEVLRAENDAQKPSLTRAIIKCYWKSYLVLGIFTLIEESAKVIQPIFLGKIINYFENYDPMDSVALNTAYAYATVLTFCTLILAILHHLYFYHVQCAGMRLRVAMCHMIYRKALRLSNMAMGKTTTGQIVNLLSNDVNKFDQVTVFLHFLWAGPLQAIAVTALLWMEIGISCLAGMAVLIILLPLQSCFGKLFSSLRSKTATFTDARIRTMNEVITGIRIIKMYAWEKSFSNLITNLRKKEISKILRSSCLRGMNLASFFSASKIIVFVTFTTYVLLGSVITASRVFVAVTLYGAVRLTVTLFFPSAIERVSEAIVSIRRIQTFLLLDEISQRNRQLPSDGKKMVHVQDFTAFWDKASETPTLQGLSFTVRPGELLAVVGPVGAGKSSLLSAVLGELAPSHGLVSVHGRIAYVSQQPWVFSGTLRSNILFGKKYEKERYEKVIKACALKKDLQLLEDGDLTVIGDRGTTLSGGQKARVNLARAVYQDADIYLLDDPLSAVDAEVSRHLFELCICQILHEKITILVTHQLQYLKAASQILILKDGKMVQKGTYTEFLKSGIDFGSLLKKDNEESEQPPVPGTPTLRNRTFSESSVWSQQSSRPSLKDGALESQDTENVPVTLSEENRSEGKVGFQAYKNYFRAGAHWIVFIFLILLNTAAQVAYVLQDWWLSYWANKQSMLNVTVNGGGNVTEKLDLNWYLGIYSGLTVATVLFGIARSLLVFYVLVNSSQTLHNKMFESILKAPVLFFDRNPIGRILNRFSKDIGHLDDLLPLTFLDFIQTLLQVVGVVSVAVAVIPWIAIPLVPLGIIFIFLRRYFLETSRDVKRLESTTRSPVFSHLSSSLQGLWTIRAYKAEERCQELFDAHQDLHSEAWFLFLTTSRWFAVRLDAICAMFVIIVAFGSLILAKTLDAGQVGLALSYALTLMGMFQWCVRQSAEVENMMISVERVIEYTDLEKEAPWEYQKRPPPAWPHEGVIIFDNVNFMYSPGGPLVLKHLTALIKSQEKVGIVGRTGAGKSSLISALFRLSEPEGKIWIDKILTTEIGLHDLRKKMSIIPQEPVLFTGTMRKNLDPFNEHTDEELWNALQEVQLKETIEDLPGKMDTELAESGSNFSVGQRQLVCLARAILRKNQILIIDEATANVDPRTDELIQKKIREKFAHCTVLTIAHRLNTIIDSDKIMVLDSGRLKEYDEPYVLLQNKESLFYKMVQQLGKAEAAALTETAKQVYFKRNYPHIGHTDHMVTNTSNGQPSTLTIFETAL
Chain of Human MDR1 (P08183 whole entry): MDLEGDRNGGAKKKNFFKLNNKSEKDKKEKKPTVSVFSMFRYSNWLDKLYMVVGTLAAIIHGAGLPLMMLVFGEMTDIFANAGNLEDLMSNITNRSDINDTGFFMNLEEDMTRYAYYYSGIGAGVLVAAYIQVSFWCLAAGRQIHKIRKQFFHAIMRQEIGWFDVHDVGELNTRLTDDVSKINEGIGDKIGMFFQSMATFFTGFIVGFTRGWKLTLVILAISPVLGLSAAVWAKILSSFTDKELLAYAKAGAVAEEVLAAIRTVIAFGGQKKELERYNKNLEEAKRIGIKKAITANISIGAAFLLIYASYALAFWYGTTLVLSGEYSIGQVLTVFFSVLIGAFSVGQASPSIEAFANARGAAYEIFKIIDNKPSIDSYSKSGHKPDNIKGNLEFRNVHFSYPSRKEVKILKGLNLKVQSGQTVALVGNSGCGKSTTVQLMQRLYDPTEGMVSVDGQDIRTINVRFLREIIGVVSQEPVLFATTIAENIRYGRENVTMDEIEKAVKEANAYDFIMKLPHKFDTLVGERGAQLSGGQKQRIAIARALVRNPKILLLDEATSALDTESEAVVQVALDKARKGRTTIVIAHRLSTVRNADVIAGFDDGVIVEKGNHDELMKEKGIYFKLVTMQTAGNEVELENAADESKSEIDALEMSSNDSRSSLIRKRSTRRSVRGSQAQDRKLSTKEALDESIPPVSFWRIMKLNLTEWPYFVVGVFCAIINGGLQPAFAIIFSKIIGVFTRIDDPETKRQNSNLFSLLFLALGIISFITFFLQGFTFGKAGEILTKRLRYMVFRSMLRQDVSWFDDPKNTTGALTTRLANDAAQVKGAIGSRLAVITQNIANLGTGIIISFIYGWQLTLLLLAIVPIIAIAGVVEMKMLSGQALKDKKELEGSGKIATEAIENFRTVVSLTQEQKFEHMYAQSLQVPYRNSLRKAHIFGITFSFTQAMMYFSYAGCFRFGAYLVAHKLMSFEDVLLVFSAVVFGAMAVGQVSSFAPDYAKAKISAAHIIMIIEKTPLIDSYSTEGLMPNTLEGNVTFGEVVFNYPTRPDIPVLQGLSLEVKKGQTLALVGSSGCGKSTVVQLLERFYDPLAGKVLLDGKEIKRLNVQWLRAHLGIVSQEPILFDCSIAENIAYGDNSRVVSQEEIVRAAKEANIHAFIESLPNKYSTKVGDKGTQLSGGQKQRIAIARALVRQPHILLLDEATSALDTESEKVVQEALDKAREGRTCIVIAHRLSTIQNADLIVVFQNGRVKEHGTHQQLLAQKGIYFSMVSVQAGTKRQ

For `O=C(O)c1ccccc1O` [SA, salicylic acid], the “Dermal absorption of individual analytes” value [1] was 6.9 ± 0.4 percentage of the applied dose, the “Further metabolism in PHH” value [2] was “not metabolized further” and the half-life at 20 µM ([2]; both sexes, human, hepatocytes, Half-life in PHH) was greater than 15.8 h. The hepatocyte CLint at 20 µM ([2]; both sexes, human, hepatocytes, In vitro intrinsic clearance (CLint, in vitro)) was roughly 0.9 µL/min/1e6 cells, the “Further metabolism in PHH” value ([2]; both, human, 240 min, 20 µM) was “not further metabolized” and the “Exposure of unbound SA compared to unbound BSal” value [3] was no less than 5 fold. The PoD [4] was ≥10,000 µM, the “Effect on panel targets” value ([4]; up to millimolar concentrations) was “none of the targets tested were significantly impacted” and the inhibition at 10 µM ([5]; 10 µM SA, two technical replicates) was 25.4%. The “Inhibition of acetylcholinesterase, follow-up” value ([5]; 10 μM to 1 mM SA) was no more than 5%, the “Inhibition of COX1, screening” value ([6]; 10 µM) was “did not inhibit” and the “Inhibition of COX1, follow-up” value ([6]; up to 10 mM) was “did not inhibit; also recorded: no effect”. For the same compound, the IC50 [7] was greater than 10 mM, the “Inhibition of COX2, screening” value ([7]; 10 µM) was “did not inhibit” and the inhibition at 10000 µM ([7]; 10 mM) was 29%. The MoIE ([8]; PoD method 1 (213 µM) / CI95 Cmax 0.630 µM) was 338, the MoIE ([8]; PoD method 1 (213 µM) / mean Cmax 0.273 µM) was 780 and the MoIE ([8]; PoD method 2 ([…]) / CI95 Cmax 0.630 µM) was 16. The MoIE ([8]; PoD method 2 ([…]) / mean Cmax 0.273 µM) was 38, the “Substrate of MDR1 (efflux)” value [9] was “not a substrate” and the “Substrate of MRP4 (efflux)” value [10] was “not a substrate”. The “Substrate of OAT3 (uptake)” value [11] was “borderline substrate”, the “PoD (BMDL, lowest pathway)” value [12] was 213 μM (method 1) µM and the PoD [13] was 500 µM. The PoD [14] was greater than 300 µM, the “Estrogen pathway Dimerisation: Call” value [15] was “Negative” and the “Estrogen pathway mRNA induction: Call” value [16] was “Negative”. The “Estrogen pathway Reporter protein Antagonist: Call” value [17] was “Negative”, the “Androgen pathway Dimerisation: Call” value [18] was “Negative” and the “Androgen pathway Reporter protein Agonist: Call” value [19] was “Negative”. The “Thyroid pathway Reporter protein Antagonist: Call” value [20] was “Negative” and the “PoD (BMDL, lowest pathway)” value [21] was 213 µM.
